Results published in US10150787B2, “TC-PTP inhibitors as APC activators for immunotherapy” (THE ROYAL INSTITUTION FOR THE ADVANCEMENT OF LEARNING / …, priority 2014, dated 2018).

Key:
monocyte-derived DCs = assay: Mouse Dendritic Cell Assay (IL-12 production); format: cell-based; conditions: for % increase in IL-12 production: 24 h IL-12 production following 6 days of DC incubation and maturation in the presence of 32 μM of test compound vs vehicle-treated cells; for potency in the IL-12 release assay (in words): IL-12 release assay shown in Example 12
Method: Mouse bone marrow cells were flushed from the femur and tibia into RPMI (supplemented with 10% FBS, gentamicin, HEPES, non-essential amino acids) using a syringe equipped with a 23 gauge needle. Clumps were dispersed by gently passing the cell suspension several times through the syringe. Any remaining clumps of cells and debris were removed by passing cell suspension through a 70 μM nylon strainer. The suspension was centrifuged (300×g for 10 mins), the supernatant was discarded and the cells were resuspended in 5 ml of red cell lysis buffer (SIGMA). The cells were counted and mouse monocytes cells (CD11b+) were isolated according to the instructions for positive selection of CD11 b cells (Stemcell technologies). The cells were then resuspended in RPMI media supplemented with 10% FBS, gentamicin, Hepes and non-essential aminoacids (aa) and treated with 40 ng/ml of recombinant mouse GM-CSF and IL-4 (Peprotech). Mouse monocytes were plated at 1×10^6 cells/mL. The cells were incubated for 6 days at 37° C., 5% CO2 in a humidified incubator in the presence of different concentrations of the compounds (0-32 μM). The media was changed every three days by removing half of the media from the plate and replenishing with the same volume of fresh media supplemented with cytokines and the test compounds at the same concentrations.
Immature monocyte-derived DCs may be incubated with a DC maturation cocktail containing the test compounds and incubated for an additional 24-72 hours. There are many DC maturation cocktails identified in the literature, with the “gold standard” consisting of 10 ng/ml TNF-α, 10 ng/ml IL-1β, 1000 units/ml IL-6 and 1 μg/mL PGE2. Alternatively, MPLA (10 μg/mL) and IFNγ (500 U/ml, Peprotech, for clinical research) has also been used. For the data shown in Example 12, the immature monocyte-derived DCs were cultured with LPS (1 μg/mL)) for 48 hours to induce maturation. Test compounds were included in the maturation cocktail at concentrations varying between 1 and 32 μM.
(§1) Characteristics of the mature DCs can be determined by a number of assays including flow cytometry analysis of the surface markers expressed on DCs, the cytokine production profile of activated DCs, antigen presentation assay and in vivo experiments to assess the DC-mediated antitumor response and cancer immunity.

TC-PTP = TC-PTP (Homo sapiens (Human), UniProt P17706); assay: Enzyme Assay for TC-PTP; format: biochemical; conditions: inhibition of TC-PTP enzymatic activity
Chain of TC-PTP (P17706 whole entry, species assumed): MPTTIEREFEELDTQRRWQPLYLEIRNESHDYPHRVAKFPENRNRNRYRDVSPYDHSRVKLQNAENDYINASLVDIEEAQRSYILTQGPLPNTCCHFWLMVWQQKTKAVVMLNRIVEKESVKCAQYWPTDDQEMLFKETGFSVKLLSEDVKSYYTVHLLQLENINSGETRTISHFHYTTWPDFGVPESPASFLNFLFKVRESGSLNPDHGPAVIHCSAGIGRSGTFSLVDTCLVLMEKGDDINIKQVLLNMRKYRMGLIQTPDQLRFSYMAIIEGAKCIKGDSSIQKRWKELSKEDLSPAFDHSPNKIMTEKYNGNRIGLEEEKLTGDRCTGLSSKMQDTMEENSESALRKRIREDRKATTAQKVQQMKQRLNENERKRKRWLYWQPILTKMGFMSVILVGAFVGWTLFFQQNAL
Method: 1) Enzyme Assay for TC-PTP
• Assay buffer: 50 mM Bis-Tris (pH=6.3) • 2 mM EDTA • 5 mM N,N′-dimethyl-N,N′-bis(mercaptoacetyl)hydrazine (DMH) • Substrate: 10 mM fluorescein diphosphate (FOP) store at −20° C. (also can use 10 mM DiFMUP) • Enzyme dilution buffer: 50 mM Bis-Tris (pH=6.3) • 2 mM EDTA • 5 mM DMH • 20% (v/v) glycerol • 0.01% Triton X-100
The assay was carried out at room temperature in 96 well plates. The reaction mixture in 170 μl contained 50 mM Bis-Tris (pH=6.3), 2 mM EDTA, 5 mM N,N′-dimethyl-N,N′bis(mercaptoacetyl)hydrazine (DMH) and 10 μM fluorescein diphosphare (FDP) or 6,8-difluoro-4-methylumbelliferyl phosphate (DiFMUP). 10 μl of 10 concentrations (serial dilution) of the test compound (inhibitor) dissolved in DMSO or DMSO alone for control was added to each well and the plate was mixed for 2 min. The reaction was initiated by adding 20 μl of diluted TC-PTP (50 nM for FDP, 0.5 nM for DiFMUP in 50 mM Bis/Tris (pH=6.3), 2 mM EDTA, 5 mM DMH, 20% glycerol and 0.01% Triton X-100. The phosphatase activity was followed by monitoring the appearance of the fluorescent product fluorescein monophosphate (FMP) or 6,8-difluoro-7-hydroxyl-4-coumarin (DiFMU) continuously for 15-30 min, using the Spectromax Gemini fluorescent plate reader ([…]) with excitation of 440 nm and emission at 530 nm (cutoff filter at 525 nm) for FDP and excitation at 360 nm and emission at 450 nm (cutoff filter at 435 nm) for DiFMUP. All the assays were done at least in duplicate. The initial rate of FMP or DiFMU formation is plotted against the concentration of inhibitor and the data was fitted to 4-parameter equation and the inflection point of the fit is the IC50.

EG7 lymphoma cells = assay: Mouse Syngeneic Tumor Model, treated with inhibitor-activated mature dendritic cells; format: in vivo; conditions: tumor volume in mice 28 days following a single treatment of mature dendritic cells activated by the compound; Example 5 vs Example 6
Text: A novel dual reporter (GFP & luciferase) MSCV based plasmid was creating by subcloning from two commercially available constructs (addgene 19360: pLenti pgk and addgene 18751: MSCV-IRES-GFP). This construct was used to generate retrovirus for infection of EG7 lymphoma cells (ATCC#CRL-2133). EG7-ova expressing cells are a commonly used model for T cell lymphoma engineered to express the ovalbumin antigen making them useful in immunological and drug discovery applications. These cells were then GFP sorted at the McGill University Life Sciences Complex flow cytometry core (BD FACscalibur) prior to subcutaneous implantation (5×10^5 cells) in syngeneic C57bl6 mice (Harlan). Tumors were allowed to establish in the mice and then were imaged ten days post implantation (Perkin Elmer IVIS100) and luminescence was quantified using IVIS software. Mice were then treated on day 10 post injection with 2×10^6 ex vivo-derived and inhibitor-treated mature dendritic cells (IP injection) (see ex vivo activation of monocyte derived DC with PTP inhibitor). Ovalbulim was added to DC cultures during maturation at a concentration of 2.5 mg/mL. Following maturation, DCs were harvested by gently resuspending with phosphate-buffered saline to dislodge any loosely attached cells. Cells were then spun down and washed twice with phosphate-buffered saline. […]

[1] = system: dendritic cells derived from monocytes taken from human pancreatic cancer patients; assay: Human Dendritic Cell Assay (IL-12 release); format: cell-based; conditions: DCs matured in the presence of the compound vs the same cells matured without it
Method: A sample of human blood was diluted with an equal volume of PBS plus 2% FBS. The diluted blood was layered on top of Lymphoprep (Stemcell technologies) being careful to minimize the mixing of the blood with Lymphoprep. The mixture was centrifuged at 800×g for 20 minutes at room temperature with brake off. If the blood had been stored for more than 2 hours, the centrifugation time was increased to 30 minutes. The upper plasma layer was then removed and discarded without disturbing the plasma-lymphoprep interface. The mononuclear cell layer (PMBC) at the plasma-lymphoprep interface was removed and retained without disturbing the erythrocyte/granulocyte pellet. The mononuclear cells were washed once with media and the CD14+ cells were isolated according to the instructions for the positive selection of CD14+ kit (Stemcell technologies). The resulting CD14+ cells were cultured in PromoCell monocyte attachment media (PromoCell). Cells were plated at 0.5×10^6 cells/cm^2 and incubated for 1 h at 5% CO2 and 37° C. in a humidified incubator. […]
as §1

| Structure (SMILES) | IC50 (TC-PTP) [nM] | % increase in IL-12 production (monocyte-derived DCs) [%] | potency in the IL-12 release assay (in words) (monocyte-derived DCs) | efficacy at reducing tumor volume (EG7 lymphoma cells) | release of IL-12 [1] |
| --- | --- | --- | --- | --- | --- |
| CCOC(=O)c1cc2cc(C(F)(F)P(=O)(O)O)c(Br)cc2s1 [Ex. 1, ((6-Bromo-2-(Ethoxycarbonyl)Benzo[b]Thiophen-5-yl)Difluoromethyl)Phosphonate] | 450 | 161 |  |  |  |
| NC(=O)c1cc2cc(C(F)(F)P(=O)(O)O)c(Br)cc2s1 [Ex. 3, ((6-Bromo-2-Carbamoylbenzo[b]Thiophen-5-yl)Difluoromethyl)Phosphonate] | 280 | 130 |  |  |  |
| CCOC(=O)c1cc2cc(Br)c(C(F)(F)P(=O)(O)O)cc2s1 [Ex. 7, ((5-Bromo-2-(Ethoxycarbonyl)Benzo[b]Thiophen-6-yl)Difluoromethyl)Phosphonate] | 740 | 171 |  |  | greater release of IL-12 |
| O=C(O)c1cc2cc(Br)c(C(F)(F)P(=O)(O)O)cc2s1 [Ex. 9, ((5-Bromo-2-(Carboxy)Benzo[b]Thiophen-6-yl)Difluoromethyl)Phosphonate] | 170 |  |  |  |  |
| N#Cc1ccc2cc(Br)c(C(F)(F)P(=O)(O)O)cc2c1 [Ex. 10, [(3-Bromo-7-Cyano-2-Naphthyl)(Difluoro)Methyl]Phosphonate] | 490 | 42 |  |  |  |

Continued, in another order:

| IC50 (TC-PTP) [nM] | Structure (SMILES) | % increase in IL-12 production (monocyte-derived DCs) [%] | potency in the IL-12 release assay (in words) (monocyte-derived DCs) | efficacy at reducing tumor volume (EG7 lymphoma cells) | release of IL-12 [1] |
| --- | --- | --- | --- | --- | --- |
| 260 | O=C(O)c1cc2cc(C(F)(F)P(=O)(O)O)c(Br)cc2s1 [Ex. 2, 6-Bromo-5-(Difluoro(Phosphonato)Methyl)Benzo[b]Thiophene-2-Carboxylate] | 143 |  |  |  |
| 1200 | N#Cc1cc2cc(C(F)(F)P(=O)(O)O)c(Br)cc2s1 [Ex. 4, ((6-Bromo-2-Cyanobenzo[b]Thiophen-5-yl)Difluoromethyl)Phosphonate] | 85 |  |  |  |
| 1500 | O=P(O)(O)C(F)(F)c1cc2cc(CO)sc2cc1Br [Ex. 5, ((6-Bromo-2-(Hydroxymethyl)Benzo[b]Thiophen-5-yl)Difluoromethyl)Phosphonate] | 144 | potent | greater efficacy at reducing tumor volume |  |
| 370 | N#CCc1cc2cc(C(F)(F)P(=O)(O)O)c(Br)cc2s1 [Ex. 6, ((6-Bromo-2-(Cyanomethyl)Benzo[b]Thiophen-5-yl)Difluoromethyl)Phosphonate] | 60 | less potent |  |  |
| 2900 | COC(=O)c1cc2cc(Br)c(C(F)(F)P(=O)(O)O)cc2s1 [Ex. 8, ((5-Bromo-2-(Methoxycarbonyl)Benzo[b]Thiophen-6-yl)Difluoromethyl)Phosphonate] |  |  |  |  |
